# Values quoted from earlier work, collected in article PMC5643527, “In vivo imaging of lung inflammation with neutrophil-specific ^68Ga nano-radiotracer” (Scientific Reports, 2017).
# Experiments:
# [1] = target: formyl peptide receptor 1 (FPR-1); settings: antagonist of FPR-1; read-out: binding affinity (Kd)
# Method: A particularly interesting compound is the peptide N-cinnamoyl-F-(D)L-F-(D)L-F (cFLFLF), an antagonist of formyl peptide receptor 1 (FPR-1). The very high binding affinity of cFLFLF (Kd = 2 nM) is the main reason for its use in neutrophil-specific probes for PET and optical fluorescence[7],[8],[10]. However, the high hydrophobicity of cFLFLF produces very poor target-to-background ratios. This serious limitation is the reason why to date the amount of radiotracer reaching the inflammation site is below 1% (expressed as the % of injected dose per mass of the organ)[7],[10]. || Inflammation is a central feature of many clinical conditions and can be broadly classified as acute or chronic. Acute inflammation typically occurs over a timescale of minutes to hours, whereas chronic inflammation can develop over several days to months. The predominant cell type in acute inflammation is the neutrophil, whereas chronic inflammation features a greater variety of cell types.
# [2] = target: formyl peptide receptor 1 (Homo sapiens) (UniProt P21462)
# Sequence of UniProt P21462 (P21462 whole entry): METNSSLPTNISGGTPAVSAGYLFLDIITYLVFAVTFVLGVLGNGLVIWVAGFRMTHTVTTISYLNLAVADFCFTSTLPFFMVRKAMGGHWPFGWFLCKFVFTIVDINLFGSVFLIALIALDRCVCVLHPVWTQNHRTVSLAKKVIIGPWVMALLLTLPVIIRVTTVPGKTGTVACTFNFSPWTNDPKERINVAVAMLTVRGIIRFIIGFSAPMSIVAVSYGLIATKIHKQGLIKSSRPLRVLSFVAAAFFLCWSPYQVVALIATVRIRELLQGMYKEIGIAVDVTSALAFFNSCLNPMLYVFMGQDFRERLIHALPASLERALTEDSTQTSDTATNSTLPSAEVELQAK
Substance,Kd [1],Kd [2]
N-cinnamoyl-F-(D)L-F-(D)L-F [cFLFLF],2 nM,
cFLFLF (N-cinnamoyl-F-(D)L-F-(D)L-F),,2 nM
